Source: patent US12458628B2, “Cancer therapeutic” (J-Pharma Co., Ltd., priority 2017, dated 2025)
“And” between values parts separate entries of the source, which are not always exact repeats. Identical values can stand only once.

Test system: patients with solid cancer
Assay: Phase 1 clinical trial of JPH203 in patients with solid cancer (safety/DLT and efficacy)
Assay type: in vivo, human
Details: for Effective case: single dose then once daily for 7 consecutive days per cycle; for DLT (dose limiting toxicity): between single administration and test at end of cycle 1
Protocol: The injection is a lyophilized formulation and contains 50 mg of JPH203 and 1200 mg of sulfobutyl ether-β-cyclodextrin in one vial.
Phase 1 Clinical Trial of JPH203 in Patients with Solid Cancer
This clinical trial involved patients with solid cancer. The object of this clinical trial was to evaluate the safety (dose limiting toxicity: DLT) and efficacy of JPH203.
The patient's primary inclusion criteria and exclusion criteria are as follows:
• Patients in advanced stage, who have been confirmed to have solid cancer and who are refractory or intolerant to standard therapy • Patients whose biopsies or pre-existing tissues are available for LAT1 antibody staining • Patients who can be expected to survive 90 days or more from the date of enrollment Exclusion Criteria • Patients with serious or clinically problematic anamnesis or complications • Patients who received chemotherapy, radiation therapy, immunotherapy, or other therapies aimed at tumor shrinkage effect within 4 weeks prior to study drug administration
The dosing schedule is as follows:
On Day 1, a predetermined dosage was administered in a single dose. The dosage was 12 mg/m^2 (4 cases), 25 mg/m^2 (3 cases), 40 mg/m^2 (3 cases), 60 mg/m^2 (6 cases), or 85 mg/m^2 (1 case). One case of the 12 mg/m^2 dosage group was discontinued after only a single dose due to disease progression.
Cycle 1 was started 8 days or more after the single administration, and the injection was administered once daily for 7 consecutive days. Tests including CT were performed on days 28 to 31 from the start date of cycle 1 administration.
Within 28 days of the test day of the previous cycle, the next cycle was started and the injection was administered once daily for 7 consecutive days. Tests were performed on days 28 to 31 from the start date of administration.
DLT was the following symptoms occurring between the single administration and the test at the end of cycle 1 (from the start of cycle 1 to day 28) and for which the investigator (subinvestigator) determined that the relationship with the study drug could not be denied (“related,” “probably related,” “possibly related,” or “unlikely related”). However, the final determination of DLT was made in consultation between the investigator and the sponsor. If necessary, advice from the Data and Safety Monitoring Board was sought upon determining DLT. • 1) Non-hematologic toxicity of grade 3 or more for which the investigator (subinvestigator) determines that it is difficult to continue the administration of the study drug (except for acneform rash, maculo-papular rash, or urticaria of grade 3, and nausea, vomiting, inappetence, diarrhea, constipation, or fatigue that recovers to grade 1 by symptomatic therapy within 7 days after the occurrence) • 2) Hematotoxicity of grade 4 or more or thrombocytopenia of grade 3 or more requiring blood transfusion • 3) Febrile neutropenia
It should be noted that PD (progression) is when the sum of diameters of the target lesion is increased by 20% or more and the absolute value of sum diameters is increased by 5 mm or more compared to the smallest sum diameters measured at or after the baseline.

Nc1cc(COc2c(Cl)cc(C[C@H](N)C(=O)O)cc2Cl)c2oc(-c3ccccc3)nc2c1 [JPH203, O-(5-amino-2-phenylbenzoxazol-7-yl)methyl-3,5-dichloro-L-tyrosine]
cases of no change in tumor size (stable: SD) (12 mg/m^2 dosage group): 1 case
cases of tumor size reduction of 30% or more (partial response: PR) (12 mg/m^2 dosage group): One
cases of no change in tumor size (stable: SD) (25 mg/m^2 dosage group): 1 case
cases of no change in tumor size (stable: SD) (40 mg/m^2 dosage group): 1 case
AST/ALT increase of grade 3 (DLT) (60 mg/m^2 dosage group): observed
cases of no change in tumor size (stable: SD) (60 mg/m^2 dosage group): 1 case
AST/ALT increase of grade 3 (DLT) (85 mg/m^2 dosage group): observed
Effective case (dosage 12 mg/m^2, injection): 2/3
DLT (dose limiting toxicity) (dosage 12 mg/m^2): No
Effective case (dosage 25 mg/m^2, injection): 1/3
DLT (dose limiting toxicity) (dosage 25 mg/m^2): No
Effective case (dosage 40 mg/m^2, injection): 1/3
DLT (dose limiting toxicity) (dosage 40 mg/m^2): No
Effective case (dosage 60 mg/m^2, injection): 1/6
DLT (dose limiting toxicity) (dosage 60 mg/m^2): Yes
Effective case (dosage 85 mg/m^2, injection): 0/1
DLT (dose limiting toxicity) (dosage 85 mg/m^2): Yes
cases with significant shrinkage effect in lymph node metastatic lesions (lymph node metastatic lesions, all dosage groups): 3 out of 7
survival prolonging effects by cancer type (Swimmer plot, FIG. 2) (months of survival for each subject): exhibits survival prolonging effects on bile duct cancer, colorectal cancer, and pancreatic cancer
shrinkage of lymph node metastatic lesions (individual cases) (the 3 responding cases out of 7): 55% and 69.4% and 80%
tumor shrinkage effects by cancer type (Waterfall plot, FIG. 1) (tumor shrinkage ratio for each subject): exhibits tumor shrinkage effects on bile duct cancer, colorectal cancer, esophageal cancer, and breast cancer
